ChEMBL document CHEMBL1201862, “PubChem BioAssay data set” (2004)
“And” between values parts separate entries of the source, which are not always exact repeats. Equal values may be shown once.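 The compound was tested at five concentrations on cells cultured in 96-well plates, with a 48-hour exposure period. At the GI50, growth is halved.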 The source made the active and inactive calls. Cut-off read from the data, not from the text of the source: active = GI50 up to about 1.1 µM and inactive = higher.

Columns and labels:
Assay in all cases: growth of human tumour cells (NCI), 48 h
[1] = test system: 786-0
[2] = test system: A549
[3] = test system: HCT-15
[4] = test system: HL-60
[5] = test system: Hs-578T
[6] = test system: IGROV-1
[7] = test system: KM12
[8] = test system: MDA-N
[9] = test system: NCI-H226
[10] = test system: NCI-H522
[11] = test system: OVCAR-5
[12] = test system: SF-295
[13] = test system: SF-539
[14] = test system: SK-MEL-28
[15] = test system: SK-MEL-2
[16] = test system: SK-MEL-5
[17] = test system: SK-OV-3
[18] = test system: SNB-19
[19] = test system: SW-620
[20] = test system: UO-31

| SMILES | GI50 [1] | GI50 [2] | GI50 [3] | GI50 [4] | GI50 [5] | GI50 [6] | GI50 [7] | GI50 [8] | GI50 [9] | GI50 [10] | GI50 [11] | GI50 [12] | GI50 [13] | GI50 [14] | GI50 [15] | GI50 [16] | GI50 [17] | GI50 [18] | GI50 [19] | GI50 [20] |
| --- | --- | --- | --- | --- | --- | --- | --- | --- | --- | --- | --- | --- | --- | --- | --- | --- | --- | --- | --- | --- |
| O=C(c1ccc(Cl)cc1)c1cnc(Nc2ccccc2Cl)s1 | 17.5 µM (inactive) | 23.9 µM (inactive) | 22.8 µM | > 100 µM (inactive) | 32.4 µM (inactive) | 23.2 µM (inactive) | 27.2 µM (inactive) | 21.8 µM (inactive) | 25.8 µM (inactive) | 23 µM (inactive) | 29.8 µM (inactive) | 21.5 µM (inactive) | 27.5 µM (inactive) | 16.6 µM (inactive) | 15.6 µM (inactive) | 18.5 µM (inactive) | 23 µM (inactive) | 20.2 µM (inactive) | 40.1 µM (inactive) | 21.6 µM (inactive) |
| CC(C)CC(N)C(=O)NC(C(=O)NC(CCCNC(=N)N)C(=O)NC(CS)C(=O)NC1CSCC(C(=O)NC(Cc2ccccc2)C(=O)NC(C(=O)NC(CCCNC(=N)N)C(=O)O)C(C)C)NC(=O)C2CCCN2C(=O)C(CCCCN)NC(=O)C2CCCN2C(=O)C2CCCN2C(=O)C(Cc2ccc(O)cc2)NC(=O)C(CO)NC(=O)C(CCCCN)NC(=O)C(C(C)O)NC(=O)C(Cc2c[nH]c3ccccc23)NC1=O)C(C)C (stereo not given) | > 25 µM (inactive) | > 25 µM (inactive) | > 25 µM | > 25 µM (inactive) | > 25 µM (inactive) | > 25 µM (inactive) | > 25 µM (inactive) | > 25 µM (inactive) | > 25 µM (inactive) | > 25 µM (inactive) | > 25 µM (inactive) | > 25 µM (inactive) | > 25 µM (inactive) | > 25 µM (inactive) | > 25 µM (inactive) | > 25 µM (inactive) | > 25 µM (inactive) | > 25 µM (inactive) | > 25 µM (inactive) | > 25 µM (inactive) |
| CCCCCCN(C(=O)Oc1ccccc1)C(C#N)c1ccccc1 (stereo not given) | > 100 µM (inactive) | > 100 µM (inactive) | > 100 µM | > 100 µM (inactive) | > 100 µM (inactive) | > 100 µM (inactive) | > 100 µM (inactive) | > 100 µM (inactive) | > 100 µM (inactive) | > 100 µM (inactive) | > 100 µM (inactive) | > 100 µM (inactive) | > 100 µM (inactive) | > 100 µM (inactive) | > 100 µM (inactive) | > 100 µM (inactive) | > 100 µM (inactive) | > 100 µM (inactive) | > 100 µM (inactive) | > 100 µM (inactive) |
| CCn1cc(C(=O)O)c(=O)c2cc3c(cc21)S(=O)(=O)CC3 | > 100 µM (inactive) | > 100 µM (inactive) | > 100 µM | > 100 µM (inactive) | > 100 µM (inactive) | > 100 µM (inactive) | > 100 µM (inactive) | > 100 µM (inactive) | > 100 µM (inactive) | > 100 µM (inactive) | > 100 µM (inactive) | > 100 µM (inactive) | > 100 µM (inactive) | > 100 µM (inactive) | > 100 µM (inactive) | > 100 µM (inactive) | > 100 µM (inactive) | > 100 µM (inactive) | > 100 µM (inactive) | > 100 µM (inactive) |
| Clc1ccc(CCN(CCc2ccc(Cl)c(Cl)c2)CCN2CCCC2)cc1Cl | 1.76 µM (inactive) | 1.74 µM (inactive) | 1.79 µM | 1.39 µM (inactive) | 1.9 µM (inactive) | 1.58 µM (inactive) | 1.67 µM (inactive) | 1.87 µM (inactive) | 1.67 µM (inactive) | 1.64 µM (inactive) | 1.6 µM (inactive) | 1.78 µM (inactive) | 1.8 µM (inactive) | 1.77 µM (inactive) | 1.67 µM (inactive) | 1.81 µM (inactive) | 1.78 µM (inactive) | 1.82 µM (inactive) | 1.72 µM (inactive) | 1.64 µM (inactive) |
| COC(=O)[C@H](Cc1ccccc1)NC(=O)[C@H](Cc1ccccc1)NC(=O)CN1C(=O)[C@@H]2C3C=CC(C3)[C@@H]2C1=O | 15.5 µM (inactive) and 14.2 µM (inactive) | 22 µM (inactive) and 21.1 µM (inactive) | 15.6 µM and 17.4 µM | 11 µM (inactive) | 19.1 µM (inactive) and 19.5 µM (inactive) | 16.5 µM (inactive) and 12.9 µM (inactive) | 20.7 µM (inactive) and 17.1 µM (inactive) | 16.5 µM (inactive) and 17.2 µM (inactive) | 20.1 µM (inactive) and 19.1 µM (inactive) | 16 µM (inactive) and 14.1 µM (inactive) | 22 µM (inactive) and 19.8 µM (inactive) | 18.5 µM (inactive) and 19.2 µM (inactive) | 18.7 µM (inactive) and 17.9 µM (inactive) | 19.3 µM (inactive) and 18.1 µM (inactive) | 18.2 µM (inactive) and 17.9 µM (inactive) | 18.2 µM (inactive) and 15 µM (inactive) | 16.7 µM (inactive) | 21 µM (inactive) and 20.8 µM (inactive) | 16.5 µM (inactive) and 20.9 µM (inactive) | 23.3 µM (inactive) and 15.7 µM (inactive) |
| Cc1ccc(NCCN(C)C)c2c(=O)c3cc(O)ccc3sc12 | 1.94 µM (inactive) | 0.214 µM (active) | 2.69 µM | 0.416 µM (active) | 0.933 µM (active) | 4.47 µM (inactive) | 4.28 µM (inactive) | 2.04 µM (inactive) | 4.48 µM (inactive) | 4.33 µM (inactive) | 15.3 µM (inactive) | 5.27 µM (inactive) | 3.55 µM (inactive) | 6.01 µM (inactive) | 20.5 µM (inactive) | 2.86 µM (inactive) | 3.33 µM (inactive) | 2.64 µM (inactive) | 1.19 µM (inactive) | 4.23 µM (inactive) |
| O=CN1CCN(C(=O)c2ccco2)C1=S | 3.13 µM (inactive) | 11.3 µM (inactive) | 7.83 µM | 3.46 µM (inactive) | 22 µM (inactive) | 9.38 µM (inactive) | 6.18 µM (inactive) | 7.62 µM (inactive) | 22.9 µM (inactive) | 3.67 µM (inactive) | 19.4 µM (inactive) | 22.5 µM (inactive) | 4.38 µM (inactive) | 15.9 µM (inactive) | 17.2 µM (inactive) | 12.6 µM (inactive) | 24.3 µM (inactive) | 22.1 µM (inactive) | 5.82 µM (inactive) | 4.49 µM (inactive) |
| O=c1/c(=C/c2ccc([N+](=O)[O-])o2)sc2n1[C@@H](c1ccc3c(c1)OCO3)C=C(c1cc(F)c(Cl)cc1Cl)N=2 | 9.51 µM (inactive) | 16.4 µM (inactive) | 9.59 µM | 15.6 µM (inactive) | 61 µM (inactive) | 16.3 µM (inactive) | 16.6 µM (inactive) | 5.5 µM (inactive) | 46.7 µM (inactive) | 25.8 µM (inactive) | 21.7 µM (inactive) | 31.2 µM (inactive) | 23.8 µM (inactive) | 22.3 µM (inactive) | 25.1 µM (inactive) | 10.3 µM (inactive) | 46.5 µM (inactive) | 20.8 µM (inactive) | 5.42 µM (inactive) | 16.7 µM (inactive) |
| Clc1ccc(-c2nn3c(COc4cccc(OCc5nnc6sc(-c7ccc(Cl)cc7)nn56)c4)nnc3s2)cc1 | 15.1 µM (inactive) | 25.8 µM (inactive) | 27.5 µM | 21.5 µM (inactive) | 59 µM (inactive) | 26.8 µM (inactive) | 29.5 µM (inactive) | 15.7 µM (inactive) | > 100 µM (inactive) | 22.8 µM (inactive) | 28.6 µM (inactive) | 31.3 µM (inactive) | 26.9 µM (inactive) | 7.78 µM (inactive) | 58.5 µM (inactive) | 15.2 µM (inactive) | 51.3 µM (inactive) | 24.6 µM (inactive) | 25.9 µM (inactive) | 19.5 µM (inactive) |
| CC(=O)c1cccc2c1CC1(C2)Cc2ccc3c(c2C1=O)CCC3 (stereo not given) | 41.2 µM (inactive) | 23.3 µM (inactive) | 33.6 µM | 3.64 µM (inactive) | 32.7 µM (inactive) | 74 µM (inactive) | 29.6 µM (inactive) | 49.1 µM (inactive) | 23.9 µM (inactive) | 17 µM (inactive) | 53.6 µM (inactive) | 43.2 µM (inactive) | 82.2 µM (inactive) | 42.1 µM (inactive) | 26.2 µM (inactive) | 14 µM (inactive) | 83.6 µM (inactive) | > 100 µM (inactive) | 55.2 µM (inactive) | 30.3 µM (inactive) |
| O=[N+]([O-])c1cccc2nc3ccccc3c(NCCC[N+]3([O-])CCOCC3)c12 | 0.116 µM (active) | 0.0959 µM (active) | 1.36 µM | 0.245 µM (active) | 0.433 µM (active) | 0.15 µM (active) | 0.187 µM (active) | 0.13 µM (active) | 0.186 µM (active) | 0.0631 µM (active) | 0.327 µM (active) | 0.275 µM (active) | 0.275 µM (active) | 0.29 µM (active) | 0.175 µM (active) | 0.0782 µM (active) | 0.281 µM (active) | 0.28 µM (active) | 0.131 µM (active) | 1.67 µM (inactive) |
| C=C1CCC(CC[C@@H]2CC[C@]3(OC2)O[C@@]2(O)CC[C@]3(C)OC2(C)C)C(C)(C)[C@H]1C/C=C1/C(=O)OC[C@@H]1O (stereo not given in full) | 2.96 µM (inactive) | 3.55 µM (inactive) | 1.22 µM | 0.685 µM (active) | 4.2 µM (inactive) | 2.91 µM (inactive) | 2.34 µM (inactive) | 1.49 µM (inactive) | 2.29 µM (inactive) | 1.29 µM (inactive) | 2.5 µM (inactive) | 0.348 µM (active) | 3.17 µM (inactive) | 1.59 µM (inactive) | 0.524 µM (active) | 0.0986 µM (active) | 4.85 µM (inactive) | 2.89 µM (inactive) | 3.33 µM (inactive) | 4.91 µM (inactive) |
